US9943501B2 (KOJUN JAPAN CO., LTD., priority 2014, dated 2018)

Key:
[1] = tested on: C57BL/6J mice fed with a high-fat diet; assay: Insulin in blood of dietary-induced obesity mouse model; assay type: in vivo; conditions: administration groups, particularly the low-dose group; 85 days; FIG. 16
Procedure: (§1) For each individual of the male C57BL/6J mice after a lapse of 85 days into the test of Example 9, blood was collected from the abdominal vena cava using a syringe supplemented with heparin under anesthesia with 2% isoflurane. The amount of blood collected was set to approximately 0.8 mL. The collected blood was stored under ice cooling until centrifugation. After centrifugation (conditions: 4° C., approximately 1800×g, 10 min), the upper layer was recovered to obtain plasma. The plasma was dispensed to sampling tubes and cryopreserved until measurement. The mouse adiponectin concentration contained in the mouse plasma obtained from each individual was measured using a commercially available ELISA kit, and the average adiponectin concentration of each test group was determined.
(§2) In Example 10, the amount of moose insulin contained in the mouse plasma obtained from each individual was measured using a commercially available ELISA kit, and the average insulin concentration of each test group was determined. The ordinate of the drawing depicts the insulin concentration (ng/mL) in the mouse plasma. The test group indicated by each bar of the bar graph is the same as in FIG. 15 mentioned above.

[2] = tested on: liver (hepatocytes) of C57BL/6J mice fed with a high-fat diet; assay: Influence of administration on liver tissue (histopathological examination); assay type: in vivo, mouse; conditions: for deposition of fat droplets in the hepatocytes: 12 weeks, high-fat diet
Text: In Example 13, the liver was collected during the collection of fat tissues from each individual and histopathologically examined. The findings from the histopathological examination were as described below.
For the individuals of the normal group, the deposition of fat droplets was not observed in the hepatocytes, whereas only the very mild infiltration of inflammatory cells was observed.

[3] = tested on: C57BL/6J mice fed with a high-fat diet; assay: Leptin in blood of dietary-induced obesity mouse model; assay type: in vivo; conditions: 0.037 μg/kg/day and 0.01 mg/kg/day; 85 days; FIG. 17
Procedure: as §1
as §2, with “Leptin is a protein hormone that regulates appetite and metabolism. The leptin concentration in blood is known to elevate due to obesity, resulting in leptin resistance. In” for “In”, “mouse leptin” for “moose insulin”, “leptin” for “insulin”, “(pg/mL)” for “(ng/mL)”, “FIGS.” for “FIG.”, “15 and 16” for “15”

## O=C1C=C(c2ccccc2)C(O)O1 (centres unmarked) [5H4PB, 5-hydroxy-4-phenylbutenolide]
[1]
  insulin concentration in mouse plasma compared with the control group: inhibition of a rise in insulin concentration was confirmed
[2]; 0.037 μg/kg/day
  deposition of fat droplets in the hepatocytes: no or only weak depositions of fat droplets
[2]; 0.01 mg/kg/day
  deposition of fat droplets in the hepatocytes: no or only weak depositions of fat droplets
[2]; compared with the rosiglitazone administration groups or the control group
  hepatic damage (histopathological findings): free from hepatic damage
[3]
  leptin concentration in mouse plasma compared with the control group: inhibition of a rise in leptin concentration was confirmed in a dose-dependent manner
